{"source": "patent US5565336A", "about": "“Carboxy terminal IL-6 muteins” (University of North Carolina at Chapel Hill, priority 1994, dated 1996)", "key": {"[1]": {"test_system": "human hepatoma cell line HEP3B2", "assay": "hepatocyte stimulation (fibrinogen induction) assay using human hepatoma cell line HEP3B2", "format": "cell-based", "conditions": "in vitro activity on a human hepatoma cell line; result in words", "text": "The biological activity of wild-type IL-6 and IL-6 muteins can be measured by standard assays for measuring IL-6 activity, as is known in the art. For example, the in vitro biological activity of the IL-6 muteins of the invention may be compared with native IL-6 in a fibrinogen induction assay using a human hepatoma cell line, HEP3B2. When determined in such an assay and expressed as a percentage of activity of native, wild-type, IL-6, the activity of which is defined as 100%, the biological activity of the muteins of the present invention is at least 125%, preferably at least 150%. (See Example 3 and FIG. 6)\nThe hepatocyte stimulation assay using human hepatoma cell line HEP3B2 is carried out in duplicate serial dilutions of three or more independent preparations of each IL-6 mutein. The biological activity is determined from dose response curves prepared for each protein preparation. To minimize variation, a duplicate protein preparation of wild-type IL-6 is used in each 96-well tissue culture plate to calculate the activity of two (HEP3B2) IL-6 muteins on the same plate as a percentage of wild-type IL-6 activity. (See FIG. 6)\nCells from the human hepatoma cell line HEP3B2 are maintained in DMEM-H medium supplemented with 10% fetal bovine serum and penicillin/streptomycin. […] The OD405 is determined on a Vmax ELISA plate reader (Molecular Devices Corp., Palo Alto, Calif.). […]"}, "IL-6 receptor": {"test_system": "IL-6 receptor", "assay": "binding competition assay / Scatchard analysis with 125I-IL-6 on human myeloma cell line U-266", "conditions": "Kd wild-type IL-6 divided by Kd mutein; result in words", "protocol": "The affinity may be determined with a Scatchard analysis and quantitated as a dissociation constant, Kd.\nBinding competition assays are performed using human recombinant IL-6 derived from Escherichia coli (Genetics Institute, Cambridge, Mass.). IL-6 is radioiodinated using the Bolton-Hunter reagent (New England Nuclear, Wilmington, Del.) as described by Faltynek, C. […] The specific activity of the radiolabelled IL-6 is 22 μC/μg. […] This medium is also used for making the dilutions of the IL-6 muteins and as the binding medium. The fetal bovine serum batches are routinely tested for IL-6 activity and only batches that show negligible IL-6 activity are used for competition binding assays. […]\nBinding is performed by sealing the plates with acetate plate sealers (ICN Biomedicals, Costa Mesa, Calif.) and end-over rotation for 3 hours at 4° C. […] The cell pellets are washed once with 200 μl of ice-cold Ca^++ /Mg^+ free Hank's balanced salt solution (HBSS), resuspended in 200 μl of HBSS, transferred to scintillation vials and counted in a gamma counter.\nThe results of the Scatchard and competition binding assays are analyzed using a non-linear curve fitting program LIGAND. […] An apparent IC50 is calculated using the EBDA/LIGAND program."}}, "data": [{"substance": "IL-6 mutein with Phenylalanine at position 171 of the native sequence (Phe^171) replaced by Leucine (Leu): mutein of human IL-6 with substitution of Phenylalanine by Leucine at position 171; SEQ. ID. NOS. 3 and 4", "values": [{"measurement": "biological activity compared to wild-type IL-6", "setting": "[1]", "result": "higher biological activity"}, {"measurement": "receptor binding capacity compared to wild-type IL-6", "setting": "IL-6 receptor", "result": "increased receptor binding capacity"}]}]}
